# Data reported in US11724995B2, “Decalin derivatives, a process for the preparation and pharmaceutical composition thereof” (Council of Scientific & Industrial Research, priority 2018, dated 2023).
# Test system: Sickle cell red blood cells (SS RBCs)
# Assay: Flow adhesion assay: sickle cell adhesion inhibition, RBCs perfused over TNF-α activated HUVEC monolayer
# Format: cell-based
# Conditions: Homo sapiens; Table 1; SS RBCs treated with test compound at 100 μM, hypoxic condition 2 h; adhesion to TNF-α activated HUVEC monolayer under pulsatile flow; read-out: Inhibition (percentage of inhibition of cell adhesion)
# Method: In still yet another embodiment, the present disclosure provides Sickle cell adhesion inhibition using Sickle cell red blood cells (SS RBCs). Flow adhesion assay are performed with commercial microfluidic-well plate and microfluidic flow adhesion system. Microfluidic channels are coated by perfusion (1 dyne/cm^2, 5 min) and incubated (37° C., 1 h) with 100 ng/ml Fibronectin. Channels are then perfused with complete media to remove unbound Fibronectin. Then a uniform monolayer of HUVEC cells is formed by profusing micro channels with the cell suspension at a pressure of 3 dyne/cm^2 for 5 sec and kept for 12 hours incubation to form monolayer. The HUVEC monolayer is activated 25 ng/ml of TNF-α and incubated (37° C., 4 h). Meanwhile Sickle cell red blood cell (SS RBCs) are treated with test compound at 100 μM concentration and incubated in hypoxic condition ([…], 5% CO2, 2 h). Flow condition for adhesion assay was pulsatile (1.67 Hz) flow (0.3 dyne/cm^2). For adhesion inhibition assay SS RBCs are diluted (2:50) in PBS. SS RBCs are perfused over HUVEC monolayer and incubated for 1 h. Unbound cells in micro channels are removed by perfusing complete media. Adherent cells are enumerated. Table 1 depicts percentage of inhibition when the compounds are tested at 100 μM concentration.
# Flow adhesion assay were performed with commercial microfluidic-well plate and microfluidic flow adhesion system, Bio flux 200. Microfluidic channels were coated by perfusion (1 dyne/cm^2, 5 min) and incubated (37° C., 1 h) with 100 ng/ml Fibronectin. Channels were then perfused with complete media to remove unbound Fibronectin. Then a uniform monolayer of HUVEC cells was formed by profusing micro channels with the cell suspension at a pressure of 3 dyne/cm^2 for 5 sec and kept for 12 hours incubation to form monolayer. The HUVEC monolayer was activated 25 ng/ml of TNF-α and incubated (37° C., 4 h). Meanwhile RBCs were treated with test compound at 100 μM concentration and incubated in hypoxic condition ([…], 5% CO2, 2 h). Flow condition for adhesion assay was pulsatile (1.67 Hz) flow (0.3 dyne/cm^2). For adhesion inhibition assay RBCs were diluted (2:50) in PBS. RBCs were perfused over HUVEC monolayer and incubated for 1 h. Unbound cells in micro channels were removed by perfusing complete media. Adherent cells were enumerated.
row,Compound,inhibition at 100 µM
1,"C[C@@H]1CC(=O)C=C2C=CCC[C@]21C [Compound 21, (4R,4aS)-4,4a-dimethyl-4,4a,5,6-tetrahydronaphthalen-2(3H)-one]",78%
2,"C[C@@H]1C(=O)C=CC2=CC(=O)CC[C@]21C [Compound 30, (1S,8aS)-1,8a-dimethyl-1,7,8,8a-tetrahydronaphthalene-2,6-dione]",72%
3,"C[C@@H]1CC=CC2=CC(=O)CC[C@]21C [Compound 24, (4aS,5R)-4a,5-dimethyl-4,4a,5,6-tetrahydronaphthalen-2(3H)-one]",67%
4,"C[C@@H]1CC(=O)C=C2C=CC(=O)C[C@]21C [Compound 29, (8R,8aS)-8,8a-dimethyl-1,7,8,8a-tetrahydronaphthalene-2,6-dione]",70%
5,"C[C@@H]1CC(=O)C=C2C[C@@H](O)[C@@H](O)C[C@]21C [Compound 28, (4R,4aS)-6,7-dihydroxy-4,4a-dimethyl-4,4a,5,6,7,8-hexahydronaphthalen-2(3H)-one]",56%
